Tests used:
[1] = tested on: KLF15 promoter (pEZX-FR03hKLF15p human podocytes); experiment: KLF15 reporter high-throughput screening assay in human podocytes (firefly/renilla luciferase); assay type: cell-based; settings: Homo sapiens; NCI library hits, 1 μM, 24 hours; read-out: Fold Change (KLF15 reporter activity)
Experimental: Briefly, these podocytes proliferate under permissive conditions (gamma interferon at 33° C.), but differentiate under nonpermissive conditions (37° C.).
The amplified fragment contains MluI and PmeI RE sites and was subcloned into the MluI and PmeI cloning site of the pEZX-FR03 Firefly luciferase (FLuc) and Renilla luciferase (Rluc) reporter cloning vector (GeneCopoeia) to generate pEZX-FR03hKLF15p. Following verification of the sequence by restriction and μsequencing, the pEZX-FR03hKLF15p construct (which contains a puromycin resistance cassette) was transfected into human podocytes followed by selection in puromycin-containing media for 2 weeks. Surviving podocytes clones were pooled together for further analysis.
The library of compounds from the National Cancer Institute (Approved Oncology Drugs Set VI; Natural Products Set III; Diversity Set V; and Mechanistic Diversity Set II) were added to a final concentration of 1 μM in 0.5% DMSO in the low FBS cell culture media (0.2% FBS) using liquid handling system PipetMax (Gilson). After 24 hours incubation at 37° C., the Luc-Pair™ Duo-Luciferase HT Assay Kit (GeneCopoeia LF015) were used and firefly and renilla luciferase activity was determined using the SpectraMax M3 (Molecular Devices). Positive controls were all-trans retinoic acid (atRA) (1 μM) and dexamethasone (DEX) (1 μM). Negative controls were DMSO and cell-free media.
(§1) To identify small molecule inducers of KLF15 expression in human podocytes, human podocytes were generated with a dual reporter, firefly luciferase directed at the KLF15 promoter region and renilla luciferase (pEZX-FR03hKLF15p). […] The positive controls were inducers of KLF15 expression, dexamethasone (DEX) and all-trans retinoic acid (atRA), and […] and cell-free wells served as negative controls.

[2] = tested on: KLF15 promoter (pEZX-FR03hKLF15p human podocytes); experiment: Half maximal effective concentration (EC50) of KLF15 reporter activity; assay type: cell-based; settings: Homo sapiens; KLF15 reporter activity, dose-response; read-out: EC50
Experimental: The EC50 was determined using nonlinear regression and then choosing the equation of Sigmoidal function, 4PL method (X is log(concentration); or the equation of log(agonist) vs. response—variable slope).
as §1

[3] = tested on: KLF15 promoter with mutation in the GRE (pEZX-FR03hKLF5p-mutant podocytes); experiment: GR-mutant KLF15 reporter assay; assay type: cell-based, human; settings: as compared to DMSO
[4] = tested on: KLF15 promoter (pEZX-FR03hKLF5p human podocytes); experiment: Adriamycin treatment in human podocytes, KLF15 reporter activity; assay type: cell-based; settings: as compared to DMSO-treated podocytes
Experimental: (§2) Differentiated pEZX-FR03hKLF5p human podocytes were treated with 0.4 μg/ml adriamycin (ADR) or vehicle and 1 μM KLF15 agonist or vehicle control for 24 hours. Firefly and renilla luciferase assay were measured initially to determine relative KLF15 reporter activity.

[5] = tested on: KLF15 promoter (pEZX-FR03hKLF5p human podocytes); experiment: Lipopolysaccharide treatment in human podocytes, KLF15 reporter activity; assay type: cell-based; settings: as compared to DMSO
Experimental: (§3) Differentiated pEZX-FR03hKLF5p human podocytes were treated with 25 μg/ml lipopolysaccharide (LPS) or vehicle and 1 μM KLF15 agonist or vehicle control for 24 hours. Firefly and renilla luciferase assay were measured initially to determine relative KLF15 reporter activity.

[6] = tested on: human podocytes; experiment: Cell viability of podocytes (renilla activity, MTS assay); assay type: cell-based
Experimental: as §3, §2
To assess cell viability, the CellTiter 96® AQueous One Solution Reagent (Promega) was added to the culture media and plates were incubated for 2 hours at 37° C. with 5% CO2.

[7] = tested on: differentiated human podocytes; experiment: Actin stress fiber formation and KLF15 immunocytochemistry; assay type: cell-based; settings: LPS-treated podocytes
Experimental: To determine actin stress fiber formation, differentiated human podocytes were treated with 25 μg/ml LPS or vehicle and 1 μM KLF15 agonist or vehicle control for 24 hours. Subsequently, podocytes were fixed and stained for F-actin using Alexa Fluor 647 Phalloidin (Life Technologies). Fixation, permeabilization, and staining with phalloidin were performed as per the manufacturer's protocol. […] Briefly, phalloidin staining pattern in each cell was classified into the following types: Type A (90% of cell area filled with thick cables), Type B (no thick cables but some cables present), and Type C (no cables visible in the central area of the cell). Unless specified, 100-200 cells were quantified in a blinded manner for each group in three independent experiments.
Differentiated human podocytes were initially washed with phosphate-buffered saline (PBS) and subsequently fixed with 3.7% formaldehyde in the growth medium. Podocytes were washed and permeabilized with 0.25% Triton X-100, and then blocked in 10% normal horse serum (NHS) and incubated with rabbit anti-KLF15 antibody overnight. The next day, cells were washed with PBS and incubated in Donkey anti-Rabbit IgG (H+L) Secondary Antibody, Alexa Fluor™ 568 (Invitrogen) in 10% NHS. Subsequently, cells were washed and incubated with Hoechst (Thermo Fisher Scientific) before mounting.

[8] = tested on: KLF15 and Synaptopodin expression; experiment: Real-time PCR of KLF15 and synaptopodin in podocytes under LPS; assay type: cell-based, human; settings: podocytes under LPS conditions, vs DMSO
Experimental: (§4) Total RNA from cells was extracted by using TRIzol (Life Technologies). First-strand cDNA was prepared from total RNA (up to 1.25 μg) using the SuperScript™ IV VILO™ Master Mix (Life Technologies), and cDNA was amplified in triplicate using PowerUp™ SYBR™ Green Master Mix on an ABI QuantStudio3 (Applied Biosystems). Primers for human and mouse genes were designed using NCBI Primer-BLAST and validated for efficiency before application (Table 1). Data were normalized to housekeeping genes (GAPDH or ACTB) and presented as a fold increase compared with RNA isolated from the control group using the ΔΔCT method.

[9] = tested on: FVB/n mice; experiment: LPS-induced proteinuric murine model; assay type: in vivo, mouse; settings: LPS proteinuric murine model, concurrent treatment, vs DMSO
Experimental: In the LPS-induced proteinuric model, all 8-week-old FVB/n mice were initially treated with LPS [intraperitoneal (IP), 10 μg/g, Sigma-Aldrich] or sterile normal saline (IP) at 0- and 24-hour time points as previously described (17). […] Urine was collected and mice were euthanized 48 hours post-LPS treatment.
Urine albumin was quantified by ELISA using a kit from Bethyl Laboratory Inc. Urine creatinine levels were measured in the same samples using the Creatinine Colorimetric Assay Kit (500701; Cayman Chemical) as per manufacturer's protocol.
Briefly, mice were perfused with PBS containing 2.5 mg/ml iron oxide and 1% BSA. At the end of perfusion, kidneys were removed, decapsulated, minced into 1 mm^3 pieces, and digested in PBS containing 1 mg/ml collagenase A. Digested tissue was subsequently passed through a 100 μm cell strainer and collected by centrifugation. The pellet was resuspended in 1 ml PBS and glomeruli were collected using a magnet. The purity of glomeruli was verified under microscopy. Total RNA was isolated from kidney glomeruli of mice using the RNeasy Kit (Qiagen, Germantown, MD).
as §4
Transmission Electron Microscopy (TEM) was done in the Central Microscopy Imaging Center at Stony Brook Medicine. Briefly, after embedding the kidney tissues in epoxy resin, ultrathin sections were stained with uranyl acetate and lead citrate, then mounted on a copper grid, and photographed under a FEI BioTwin G2 Transmission Electron Microscope with AMT XR-60 CCD digital Camera (FEI).

With `CSc1ccc(NC(=O)Nc2cc(C)ccn2)cc1` [C-7, 1-(4-Methylpyridin-2-yl)-3-(4-methylsulfanylphenyl)urea] the fold induction at 1 µM [1] was 3.17, the EC50 [2] was 11.9 nM and the KLF15-mutant reporter activity [3] was “induced similar KLF15 activity”. The “KLF15 activity in the setting of adriamycin (ADR)” value [4] was “induced KLF15 activity”, the “KLF15 activity in the setting of LPS treatment” value [5] was “maintained KLF15 activity” and the “cell viability (renilla activity and MTT assay) in the setting of ADR” value ([6]; as compared to DMSO-treated podocytes) was “maintained”. For the same compound, the “renilla activity in dose-response” value ([6]; higher doses (10^4 nM), relative to DMSO) was “significant increase in renilla activity”, the “KLF15 expression and actin stress fiber formation (immunostaining)” value [7] was “restored KLF15 expression and actin stress fiber formation” and the “KLF15 and Synaptopodin expression” value [8] was “restored”. For the same compound, the albuminuria [9] was “significantly abrogated albuminuria”.
